Data reported in US20210045385A1, “PYRIDAZINONE-SUBSTITUTED KETOXIMES AS HERBICIDES” (FMC Corporation, priority 2018, published 2021).

Experiments:
Format in all cases: in vivo
[1] = tested on: Italian ryegrass (Lolium multiflorum); test: Test A postemergence, visual plant response rating; settings: for Ryegrass, Italian plant response rating (0 to 100 scale): 500 g ai/ha, postemergence, 0 is no effect, 100 is complete control; for Ryegrass, Italian plant response rating: Postemergence, 125 g ai/ha, 0 to 100 scale (0 no effect, 100 complete control)
Summary of the method: (§1)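 Compared with untreated controls, treated plants received a visual injury score on a 0–100 scale around 10 days after application. The compound, in a non-phytotoxic solvent with surfactant, was given as a preemergence soil spray or postemergence at the one- to two-leaf stage.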

[2] = tested on: galium (catchweed bedstraw, Galium aparine); test: Test A postemergence, visual plant response rating; settings: for Galium plant response rating (0 to 100 scale): 500 g ai/ha, postemergence, 0 is no effect, 100 is complete control; for Galium plant response rating: Postemergence, 125 g ai/ha, 0 to 100 scale (0 no effect, 100 complete control)
Summary of the method: as §1

[3] = tested on: foxtail, green (green foxtail, Setaria viridis); test: Test A postemergence, visual plant response rating; settings: for Foxtail, Green plant response rating (0 to 100 scale): 500 g ai/ha, postemergence, 0 is no effect, 100 is complete control; for Foxtail, Green plant response rating: Postemergence, 125 g ai/ha, 0 to 100 scale (0 no effect, 100 complete control)
Summary of the method: as §1

corn (Zea mays) = test: Test A postemergence, visual plant response rating; settings: for Corn plant response rating (0 to 100 scale): 500 g ai/ha, postemergence, 0 is no effect, 100 is complete control; for Corn plant response rating: Postemergence, 125 g ai/ha, 0 to 100 scale (0 no effect, 100 complete control)
Summary of the method: as §1

[4] = tested on: blackgrass (Alopecurus myosuroides); test: Test A postemergence, visual plant response rating; settings: for Blackgrass plant response rating (0 to 100 scale): 500 g ai/ha, postemergence, 0 is no effect, 100 is complete control; for Blackgrass plant response rating: Postemergence, 125 g ai/ha, 0 to 100 scale (0 no effect, 100 complete control)
Summary of the method: as §1

[5] = tested on: wheat (Triticum aestivum); test: Test A postemergence, visual plant response rating; settings: for Wheat plant response rating (0 to 100 scale): 500 g ai/ha, postemergence, 0 is no effect, 100 is complete control; for Wheat plant response rating: Postemergence, 125 g ai/ha, 0 to 100 scale (0 no effect, 100 complete control)
Summary of the method: as §1

[6] = tested on: barnyardgrass (Echinochloa crus-galli); test: Test A postemergence, visual plant response rating; settings: for Barnyardgrass plant response rating (0 to 100 scale): 500 g ai/ha, postemergence, 0 is no effect, 100 is complete control; for Barnyardgrass plant response rating: Postemergence, 125 g ai/ha, 0 to 100 scale (0 no effect, 100 complete control)
Summary of the method: as §1

[7] = tested on: pigweed (Amaranthus retroflexus); test: Test A postemergence, visual plant response rating; settings: for Pigweed plant response rating (0 to 100 scale): 500 g ai/ha, postemergence, 0 is no effect, 100 is complete control; for Pigweed plant response rating: Postemergence, 125 g ai/ha, 0 to 100 scale (0 no effect, 100 complete control)
Summary of the method: as §1

kochia (Kochia scoparia) [8] = test: Test A postemergence, visual plant response rating; settings: for Kochia plant response rating (0 to 100 scale): 500 g ai/ha, postemergence, 0 is no effect, 100 is complete control; for Kochia plant response rating: Postemergence, 125 g ai/ha, 0 to 100 scale (0 no effect, 100 complete control)
Summary of the method: as §1

[9] = tested on: ragweed (common ragweed, Ambrosia elatior); test: Test A postemergence, visual plant response rating; settings: for Ragweed plant response rating (0 to 100 scale): 500 g ai/ha, postemergence, 0 is no effect, 100 is complete control; for Ragweed plant response rating: Postemergence, 125 g ai/ha, 0 to 100 scale (0 no effect, 100 complete control)
Summary of the method: as §1

rice (Oryza sativa) = test: Test B flooded paddy test, visual plant response rating; settings: 250 g ai/ha, Flood, applied to paddy water, 2-leaf stage, evaluated after 13 to 15 days
Summary of the method: (§2)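 Flooded-pot treatment: water 3 cm over the soil, chemical delivered into that water, depth unchanged for the duration. Assessed by eye versus controls following 13–15 greenhouse days; plants were at 2 leaves when dosed.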

[10] = tested on: barnyardgrass (Echinochloa crus-galli); test: as above; settings: 250 g ai/ha, Flood, applied to paddy water, 2-leaf stage, evaluated after 13 to 15 days
Summary of the method: as §2

[11] = tested on: ducksalad (Heteranhera limosa); test: as above; settings: 250 g ai/ha, Flood, applied to paddy water, 2-leaf stage, evaluated after 13 to 15 days
Summary of the method: as §2

[12] = tested on: sedge, umbrella (small-flower umbrella sedge, Cyperus difformis); test: as above; settings: 250 g ai/ha, Flood, applied to paddy water, 2-leaf stage, evaluated after 13 to 15 days
Summary of the method: as §2

[13] = tested on: Italian ryegrass (Lolium multiflorum); test: Test A preemergence, visual plant response rating; settings: approx. 10 days
Summary of the method: as §1

[14] = tested on: foxtail, green (green foxtail, Setaria viridis); test: Test A preemergence, visual plant response rating; settings: approx. 10 days
Summary of the method: as §1

[15] = tested on: barnyardgrass (Echinochloa crus-galli); test: Test A preemergence, visual plant response rating; settings: approx. 10 days
Summary of the method: as §1

[16] = tested on: pigweed (Amaranthus retroflexus); test: Test A preemergence, visual plant response rating; settings: approx. 10 days
Summary of the method: as §1

kochia (Kochia scoparia) [17] = test: Test A preemergence, visual plant response rating; settings: approx. 10 days
Summary of the method: as §1

[18] = tested on: ragweed (common ragweed, Ambrosia elatior); test: Test A preemergence, visual plant response rating; settings: approx. 10 days
Summary of the method: as §1

Compound | Ryegrass, Italian plant response rating (0 to 100 scale) [1] | Ryegrass, Italian plant response rating [1] | Galium plant response rating (0 to 100 scale) [2] | Galium plant response rating [2] | Foxtail, Green plant response rating (0 to 100 scale) [3] | Foxtail, Green plant response rating [3] | Corn plant response rating (0 to 100 scale) (corn (Zea mays)) | Corn plant response rating (corn (Zea mays)) | Blackgrass plant response rating (0 to 100 scale) [4] | Blackgrass plant response rating [4] | Wheat plant response rating (0 to 100 scale) [5] | Wheat plant response rating [5] | Barnyardgrass plant response rating (0 to 100 scale) [6] | Barnyardgrass plant response rating [6] | Pigweed plant response rating (0 to 100 scale) [7] | Pigweed plant response rating [7] | Kochia plant response rating (0 to 100 scale) (kochia (Kochia scoparia) [8]) | Kochia plant response rating (kochia (Kochia scoparia) [8]) | Ragweed plant response rating (0 to 100 scale) [9] | Ragweed plant response rating [9] | further results
CCO/N=C(\c1cccc(Cl)c1)c1c(O)c(C)nn(C)c1=O [Compound 8] | 60 | 30 | 90 | 80 | 20 | 10 | 0 | 0 | 20 | 0 | 0 | 0 | 10 | 0 | 20 | 0 | 70 | 10 | 80 | 20 | Plant response rating, Rice (0 to 100 scale, 0 is no effect, 100 is complete control) (rice (Oryza sativa)): 0; Plant response rating, Barnyardgrass (0 to 100 scale, 0 is no effect, 100 is complete control) [10]: 0; Plant response rating, Ducksalad (0 to 100 scale, 0 is no effect, 100 is complete control) [11]: 0; Plant response rating, Sedge, Umbrella (0 to 100 scale, 0 is no effect, 100 is complete control) [12]: 0; Ryegrass, Italian plant response rating (0 to 100 scale) ([13]; 125 g ai/ha Preemergence): 50; Ryegrass, Italian plant response rating (0 to 100 scale) ([13]; 500 g ai/ha Preemergence): 50; Foxtail, Green plant response rating (0 to 100 scale) ([14]; 125 g ai/ha Preemergence): 10; Foxtail, Green plant response rating (0 to 100 scale) ([14]; 500 g ai/ha Preemergence): 30; Barnyardgrass plant response rating (0 to 100 scale) ([15]; 125 g ai/ha Preemergence): 0; Barnyardgrass plant response rating (0 to 100 scale) ([15]; 500 g ai/ha Preemergence): 20; Pigweed plant response rating (0 to 100 scale) ([16]; 125 g ai/ha Preemergence): 30; Pigweed plant response rating (0 to 100 scale) ([16]; 500 g ai/ha Preemergence): 90; Kochia plant response rating (0 to 100 scale) (kochia (Kochia scoparia) [17]; 125 g ai/ha Preemergence): 10; Kochia plant response rating (0 to 100 scale) (kochia (Kochia scoparia) [17]; 500 g ai/ha Preemergence): 60; Ragweed plant response rating (0 to 100 scale) ([18]; 125 g ai/ha Preemergence): 0; Ragweed plant response rating (0 to 100 scale) ([18]; 500 g ai/ha Preemergence): 100
CCO/N=C(/c1cccc(Cl)c1)c1c(O)c(C)nn(C)c1=O [Compound 9] | 60 | 40 | 90 | 80 | 30 | 10 | 10 | 0 | 20 | 0 | 0 | 0 | 20 | 0 | 20 | 0 | 60 | 10 | 80 | 30 | Plant response rating, Rice (0 to 100 scale, 0 is no effect, 100 is complete control) (rice (Oryza sativa)): 0; Plant response rating, Barnyardgrass (0 to 100 scale, 0 is no effect, 100 is complete control) [10]: 0; Plant response rating, Ducksalad (0 to 100 scale, 0 is no effect, 100 is complete control) [11]: 0; Plant response rating, Sedge, Umbrella (0 to 100 scale, 0 is no effect, 100 is complete control) [12]: 0; Ryegrass, Italian plant response rating (0 to 100 scale) ([13]; 125 g ai/ha Preemergence): 20; Ryegrass, Italian plant response rating (0 to 100 scale) ([13]; 500 g ai/ha Preemergence): 40; Foxtail, Green plant response rating (0 to 100 scale) ([14]; 125 g ai/ha Preemergence): 20; Foxtail, Green plant response rating (0 to 100 scale) ([14]; 500 g ai/ha Preemergence): 40; Barnyardgrass plant response rating (0 to 100 scale) ([15]; 125 g ai/ha Preemergence): 0; Barnyardgrass plant response rating (0 to 100 scale) ([15]; 500 g ai/ha Preemergence): 50; Pigweed plant response rating (0 to 100 scale) ([16]; 125 g ai/ha Preemergence): 40; Pigweed plant response rating (0 to 100 scale) ([16]; 500 g ai/ha Preemergence): 90; Kochia plant response rating (0 to 100 scale) (kochia (Kochia scoparia) [17]; 125 g ai/ha Preemergence): 10; Kochia plant response rating (0 to 100 scale) (kochia (Kochia scoparia) [17]; 500 g ai/ha Preemergence): 60; Ragweed plant response rating (0 to 100 scale) ([18]; 125 g ai/ha Preemergence): 80; Ragweed plant response rating (0 to 100 scale) ([18]; 500 g ai/ha Preemergence): 90
